From US20110059869A1, “Method for Increasing Enzymatic Reactivity” (RIKEN, priority 2008, published 2011)

Experiments:
[1] = system: restriction enzyme BceAI; assay: BceAI cleavage of biotin-labeled 300 bp DNA fragments adsorbed to streptavidin beads; type: biochemical
Description: Biotin-labeled 300 by DNA fragments adsorbed (bound) to streptavidin beads were reacted with the restriction enzyme BceAI and the final concentration of the trehalose that was added to the system was examined as follows.
PCR was conducted with biotin-labeled primers (Seq. ID Nos. 1 and 2) on 300 by DNA fragments using pFLCIII vector as template. The fragments were cleaved at the type II restriction enzyme site BceAI, releasing 50 by DNA fragments that were detected. Paramagnetic streptavidin beads were washed with accessory 1× binding buffer, recovered with a magnetic stand to remove the supernatant, and then suspended in the same buffer. Equal volumes of the PCR product-containing solution and 2× binding buffer were mixed, the bead solution was added, and the mixture was gently stirred with top to bottom inversion and rotation for 15 minutes at room temperature to induce adsorption. The magnetic stand was used to recover the sample adsorption beads, which were washed three times with 1× binding buffer. They were then washed once with 1× BceAI buffer. […] The reaction solutions were added to washed beads, mixed, and reacted for 3 hours at 37° C. The beads were recovered with the magnetic stand and cleaved with restriction enzyme. The supernatant containing the cDNA that had been released was reacted with proteinase K, treated with phenol chloroform, and precipitated from ethanol. […]

[2] = system: XhoI, PstI, HindIII, and NotI; assay: Various restriction enzyme reactions on biotin-labeled cDNA immobilized on streptavidin beads; type: biochemical; settings: 0.6 M trehalose vs trehalose (−); 3 hours at 37° C.; all enzymes
Description: Streptavidin beads on which were adsorbed double-stranded cDNA were washed with various restriction enzyme buffers. The restriction enzymes employed were XhoI, PstI, HindIII, and NotI. Two reaction solutions (various 1× buffers, 1× BSA based on enzyme, restriction enzyme 40 units) were prepared: a trehalose (+) system to which D(+)-trehalose was added to a final concentration of 0.6 M, and a trehalose (−) system, to which no trehalose was added. The reaction solutions were admixed to beads that had been washed and the mixtures were reacted for 3 hours at 37° C. A magnetic stand was used to recover (aggregate) the beads, cleavage was conducted with restriction enzyme, and the supernatant containing the cDNA that had been released was measured with a liquid scintillation counter. The cDNA yield and restriction enzyme efficiency were calculated from the RI count values (Scheme 2).

[3] = system: λ phage cDNA library; assay: Preparation of a λ phage cDNA library, titer from plaques; settings: samples prepared under trehalose (+) 0.6 M vs trehalose (−)
Description: Double-stranded cDNA/RNA hybrid samples that had been immobilized on streptoavidin beads and synthesized under trehalose (+) and trehalose (−) conditions were employed to prepare a λ phage cDNA library. Following synthesis of double-stranded cDNA, the beads were washed with blunting buffer (T4 DNA polymerase buffer). Blunting reaction solution (1× T4 DNA polymerase buffer, 0.6 M trehalose, 0.1 mM dNTP mix, T4 DNA polymerase 5 units) was added and the mixture was incubated for 20 minutes at 12° C. Following the reaction, the beads were washed three times with 0.1× TE, and then washed one more time with 1× ligation buffer. Ligation reaction solution (1× T4 DNA ligation buffer, 0.6 M trehalose, 5′ end BamHI overhang adapter 2 ug, T4 DNA ligase 800 units) was added and the mixture was reacted overnight at 16° C. The beads were washed three times with 0.1× TE and then washed once with 1× XhoI. Restriction enzyme XhoI reaction solution (1× XhoI buffer, 0.6 M trehalose, XhoI 40 units) was added and the mixture was incubated for three hours at 37° C. The beads were recovered with a magnetic stand and the supernatant containing the cDNA that had been released by XhoI cutting was separated. […] A 10 uL quantity and a 100 uL quantity were admixed to the C600/MgSO4 suspensions to infect them with phage. […] The plaques that appeared were counted and the titer was calculated (Scheme 3).

[4] = system: restriction enzyme PstI; assay: PstI cleavage reaction on a spherical bead surface (DNA fragment III); type: biochemical; settings: DNA adsorbed to beads, 0.6 M trehalose vs none
Description: Biotin-labeled DNA fragment III (Seq. ID No. 6, Scheme 4) was cleaved at the restriction enzyme PstI site on the surface of streptavidin beads and the 104 by DNA fragment released was examined. DNA fragment III (500 ng) and 2× binding buffer were admixed in equal volume quantities, a solution of beads suspended in 1× binding buffer was added, and the mixture was gently stirred with top to bottom inversion and rotation for 15 minutes at room temperature to induce adsorption. The beads onto which the sample had adsorbed were recovered with a magnetic stand, washed three times with 1× binding buffer, and washed once with 1× PstI buffer. Two types of reaction solution (1× PstI buffer, 1× BSA restriction enzyme 40 units) were prepared: a trehalose (+) system to which D(+)-trehalose was added to a final concentration of 0.6 M, and a trehalose (−) system to which no trehalose was added. Each of the reaction solutions was admixed to beads that had been washed and the mixtures were reacted for three hours at 37° C. The beads were recovered with the magnetic stand and cleaved with restriction enzyme. […] The precipitate of DNA fragments obtained was dissolved in 1× TE (pH 7.5) and analyzed with Bioanalyzer DNA 1000 assay (Agilent Technologies).

OC[C@H]1O[C@H](O[C@H]2O[C@H](CO)[C@@H](O)[C@H](O)[C@H]2O)[C@H](O)[C@@H](O)[C@@H]1O [trehalose, D(+)-trehalose]
change in yield of 50 by fragments with trehalose concentration ([1]; 0 M, 0.3 M, 0.6 M, and 0.8 M trehalose): No change was observed beyond 0.6 M | yield of 50 by fragments released by cleavage ([1]; trehalose added vs not added, beads, 3 hours at 37° C.): increased | quantity of released cDNA recovered [2]: higher quantity was recovered | titer of the phage library [3]: clearly better results | yield of released DNA fragment [4]: higher yield
